Reference: patent US20060251714A1, “Pharmaceutical formulations of amyloid inhibiting compounds” (priority 2005, published 2006)

Key:
[1] = Example 9 Part II: food effect, single oral 100 mg 3-APS in elderly subjects, plasma pharmacokinetics; format: in vivo; conditions: both sexes, human, single oral 100 mg (Table 5 tablet), elderly male and female subjects; for AUC(0-inf) / Cmax / AUC(0-t): po, 100 mg; for AUC(0-inf): mean, only subjects with estimable elimination rate constant; for Cmax / AUC(0-t): n = 8, mean; for AUC(0-t): read-out: AUC0-Tlast
Procedure: (§1) In the following examples and elsewhere herein, terms are as defined below. The pharmacokinetic parameters were derived by non-compartmental analysis using WinNonlin® (Pharsight Corporation, Mountain View, Calif.) or SAS® for Windows® (SAS Institute Inc., Cary, N.C.).
Following single oral dosing of 100 mg 3-APS (modified-release coated formulation modified-release enteric-coated tablet as described in Table 5 above) to elderly (55 years or older) male and female subjects under fasted and fed (high fat) conditions, maximum plasma concentrations of 3-APS are attained at 5 and 10.5 h post-dose under fasted and fed conditions, respectively (Table 12A below and FIG. 5 showing the Mean Plasma Concentration-Time Profiles of 3-APS under Fasted and Fed Conditions following Single Oral Administration of 100 mg to Elderly Male and Female Subjects).

[2] = test system: mild to moderate AD patients; test: Example 11: open-label extension in AD patients, psychometric tests (ADAS-cog, CDR); format: in vivo, human; conditions: for average CDR score (change): after 20 months total on study medication, reported 12-month mean change +1.4 to 2.2 points in comparable patients
From the text: The ADAS-cog test is described in […] Annals of Neurology 23:477-484, which is incorporated herein by reference. It is a validated scale developed specifically as a research instrument to evaluate the severity of cognitive deficits characteristic of patients with AD. This test can usually be administered to participants in less than one hour. The ADAS-cog ranges from 0 to 70 points, with higher scores indicating a greater degree of cognitive impairment. Improved performance can be measured in patients treated with formulations of the invention compared to placebo-treated patients at various time intervals. Improvement can be measured by detecting an improved score in the treated patients compared to untreated controls after 6 months, preferably 12 months, more preferably 18 months or longer. […] Patients with Alzheimer's disease typically show an annual increase in ADAS-cog scores of from about 4-9. An improvement would provide for a lessening in the increase compared to untreated controls, for example, an annual increase of less than about 5 points or 4 points, preferably 3 points, more preferably 2 points or 1 point or even a stabilization or decrease in the score.
The CDR is described in Morris, J (1993) Neurology 43: 2412-2414, which is incorporated herein by reference. Further to the discussion of the CDR test below, it is a global rating scale of dementia that is derived from ratings of impairment assigned by an independent rater in six domains, after approximately a 90-minute interview of the caregiver and participant (Hughes C P, Berg L, Danziger W L, et al. A New Clinical Scale for the Staging of Dementia. Brit. J. Psychiat 1982; 140: 566-572). The CDR scale is from 0-18 with a higher score indicating a worsening impairment. Impairment in each of the six domains is rated as “none” (O), “questionable” (0.5), “mild” (1), “moderate” (2) or “severe” (3). Improvement can be measured by detecting a lower score in the treated patients compared to controls after 6 months, preferably 12 months, more preferably 18 months or longer. […] Patients with Alzheimer's disease typically show an annual increase in CDR scores of from about 1-3. An improvement would provide for an annual increase of less than about 3 points or 2 points, preferably 1 point, more preferably 0.5 points or 0.25 points or even an improvement (reduction) in the score.
The patients from the clinical studies in Example 10 are offered 3-APS (formulation of Table 5 above) at 150 mg BID for an additional 17 months (thus, 20 months total) in an open-label study. For doses at multiples of 50 mg, multiple 50 mg tables are administered. Twenty-four mild to moderate AD patients complete the study. Psychometric tests (ADAS-cog) are performed at each visit, that is every 3 months for the first 9 months and every 4 months for the last […]. Overall, approximately 70% of the mild AD patients show stabilized or improved cognitive function tests after 20 months.

[3] = Example 12: Phase II pilot study in CAA patients with lobar cerebral hemorrhage, plasma pharmacokinetics; format: in vivo, human; conditions: for AUC(0-inf) / Cmax / AUC(0-t): human, plasma, oral; for AUC(0-inf): mean, only patients with estimable elimination rate constant
From the text: as §1
AUCss—the area under the plasma concentrations versus time curve during a dosing interval at steady state.
A Phase II pilot study of the safety, tolerability and pharmacokinetics of 3-APS (formulation of Table 5 above) in patients with lobar cerebral hemorrhage related to Cerebral Amyloid Angiopathy (CAA). For doses at multiples of 50 mg, multiple 50 mg tables are administered. A multicenter, randomized, double-blind, and parallel designed study is conducted in the United States with 3-APS in patients who survived a lobar cerebral hemorrhage related to cerebral amyloid angiopathy (CAA). The main objective of this study is to assess the safety and tolerability of 3-APS and to characterize its pharmacokinetics in CAA patients.
A total of 24 patients who have had lobar cerebral hemorrhage are randomized to receive in a 1:1:1 ratio 3-APS 50, 100 or 150 mg BID for 12 weeks. A lumbar puncture is performed on an optional basis at Weeks 0 and 12 to assess the pharmacological effect of 3-APS on Aβ40, Aβ42 and tau concentrations in cerebrospinal fluid (CSF) and to measure the drug concentration in the CSF. Rating instruments (NIHSS, Barthel Index, ADAS-cog and EXIT25) are administered at Weeks 0 and 12 to evaluate the neurological and cognitive functions as well as the daily functioning.
For pharmacokinetic investigations, blood samples are collected from each patient prior to dosing and at specified time points through 12 h post-dose after the first dose (Week 0) and the last dose (Week 12). Blood samples are also collected prior to the first dose of the day during Week 2, 4 and 8 visits. CSF samples are obtained by lumbar puncture prior to dosing on Week 0 and approximately 5 hours post-dose on Week 12.

Compound: NCCCS(=O)(=O)O [3-APS, 3-amino-1-propanesulfonic acid]
- AUC(0-inf) ([1]; Fasting Arm): 3290 ng·h/mL
- Cmax ([1]; Fasting Arm): 931 ng/mL
- AUC(0-t) ([1]; Fasting Arm): 3220 ng·h/mL
- AUC(0-inf) ([1]; Fed Arm (high fat)): 2830 ng·h/mL
- Cmax ([1]; Fed Arm (high fat)): 671 ng/mL
- AUC(0-t) ([1]; Fed Arm (high fat)): 3400 ng·h/mL
- Tmax ([1]; Fed Arm (high fat), n = 8, median): 10.5 h
- mild AD patients showing stabilized or improved cognitive function tests ([2]; 150 mg BID open-label (Table 5 tablet), after 20 months): approximately 70%
- change from baseline in average ADAS-cog score ([2]; mild AD patients (n=13), 150 mg BID open-label, 20 months, comparable historical controls +8.6 points): +3.5 points
- average CDR score (change) ([2]; mild AD patients): +2.36 points
- average ADAS-cog score (change) ([2]; mild to moderate AD patients (n=24), 150 mg BID open-label, 20 months, comparable historical controls +10.3 points): +7.8 points
- average CDR score (change) ([2]; moderate AD patients): 2.77 points
- Tmax ([3]; 50 mg BID (Table 5 tablet), Week 0 (single dose), n = 8, median): 4.5 h
- Tmax ([3]; 50 mg BID (Table 5 tablet), Week 12 (repeated), n = 8, median): 4.4 h
- Tmax ([3]; 100 mg BID (Table 5 tablet), Week 12 (repeated), n = 6, median): 5.15 h
- Tmax ([3]; 150 mg BID (Table 5 tablet), Week 12 (repeated), n = 3, median): 5.4 h
- AUC(0-inf) ([3]; 50 mg BID (Table 5 tablet), Week 0 (single dose)): 1640 ng·h/mL
- Cmax ([3]; 50 mg, 50 mg BID (Table 5 tablet), Week 0 (single dose), n = 8, mean): 346 ng/mL
- AUC(0-t) ([3]; 50 mg, 50 mg BID (Table 5 tablet), Week 0 (single dose), n = 8, mean, read-out: AUC0-t): 1280 ng·h/mL
- Cmax ([3]; 50 mg, 50 mg BID (Table 5 tablet), Week 12 (repeated), n = 8, mean): 171 ng/mL
- AUC(0-t) ([3]; 50 mg, 50 mg BID (Table 5 tablet), Week 12 (repeated), n = 8, mean, read-out: AUC0-t (AUCss for Week 12)): 947 ng·h/mL
- AUC(0-inf) ([3]; 100 mg BID (Table 5 tablet), Week 0 (single dose)): 2780 ng·h/mL
- Cmax ([3]; 100 mg, 100 mg BID (Table 5 tablet), Week 0 (single dose), n = 7, mean): 552 ng/mL
- AUC(0-t) ([3]; 100 mg, 100 mg BID (Table 5 tablet), Week 0 (single dose), n = 7, mean, read-out: AUC0-t): 2630 ng·h/mL
- Cmax ([3]; 100 mg, 100 mg BID (Table 5 tablet), Week 12 (repeated), n = 6, mean): 806 ng/mL
- AUC(0-t) ([3]; 100 mg, 100 mg BID (Table 5 tablet), Week 12 (repeated), n = 6, mean, read-out: AUC0-t (AUCss for Week 12)): 3700 ng·h/mL
- AUC(0-inf) ([3]; 150 mg BID (Table 5 tablet), Week 0 (single dose)): 3690 ng·h/mL
- Cmax ([3]; 150 mg, 150 mg BID (Table 5 tablet), Week 0 (single dose), n = 5, mean): 857 ng/mL
- AUC(0-t) ([3]; 150 mg, 150 mg BID (Table 5 tablet), Week 0 (single dose), n = 5, mean, read-out: AUC0-t): 3900 ng·h/mL
- Cmax ([3]; 150 mg, 150 mg BID (Table 5 tablet), Week 12 (repeated), n = 3, mean): 1030 ng/mL
- AUC(0-t) ([3]; 150 mg, 150 mg BID (Table 5 tablet), Week 12 (repeated), n = 3, mean, read-out: AUC0-t (AUCss for Week 12)): 6750 ng·h/mL
